For 5 molecules, viscosity, mass density and refractive index results are on record in the NIST ThermoML archive (doi:10.1021/je200707b).

± gives the expanded uncertainty stated by the source.

The conditions of data set [1]: 101.33 kPa, Liquid; for viscosity: Falling or rolling sphere viscometry; for mass density: Vibrating tube method.
A short description of data set [2]: refractive index (Na D-line) (dimensionless). As to conditions: 298.15 K; 101.33 kPa; Liquid; Standard Abbe refractometry.

Turning to `CCCO` [propan-1-ol], the viscosity in data set [1] (293.15 K) was determined as 2.229 ± 0.061 mPa·s; in data set [1] (298.15 K), 1.975 ± 0.054 mPa·s; in data set [1] (303.15 K), 1.757 ± 0.048 mPa·s; in data set [1] (308.15 K) it was 1.568 ± 0.043 mPa·s; in data set [1] (313.15 K), 1.406 ± 0.039 mPa·s. The mass density was found to be 803.55 ± 0.37 kg/m3 in data set [1] (293.15 K); 799.55 ± 0.37 kg/m3 in data set [1] (298.15 K); 795.52 ± 0.37 kg/m3 in data set [1] (303.15 K); 791.44 ± 0.37 kg/m3 in data set [1] (308.15 K); 787.34 ± 0.37 kg/m3 in data set [1] (313.15 K). Besides, in data set [2], the refractive index is 1.3834 ± 0.0011.

On to `CO` [methanol], for which the viscosity in data set [1] (293.15 K) is recorded as 0.588 ± 0.016 mPa·s; in data set [1] (298.15 K) it was 0.557 ± 0.015 mPa·s; in data set [1] (303.15 K), 0.519 ± 0.014 mPa·s; in data set [1] (308.15 K) it was 0.49 ± 0.013 mPa·s; in data set [1] (313.15 K) it was 0.462 ± 0.013 mPa·s. Moreover, the mass density came to 791.28 ± 0.37 kg/m3 in data set [1] (293.15 K); 786.56 ± 0.37 kg/m3 in data set [1] (298.15 K); 781.83 ± 0.37 kg/m3 in data set [1] (303.15 K); 777.07 ± 0.37 kg/m3 in data set [1] (308.15 K); 772.29 ± 0.37 kg/m3 in data set [1] (313.15 K). Also, in data set [2], the refractive index was found to be 1.3265 ± 0.0011.

Regarding `CC(=O)O.CCCCN` [butylammonium acetate], the viscosity in data set [1] (293.15 K) stood at 771.69 ± 71 mPa·s; in data set [1] (298.15 K) it was 546.35 ± 44 mPa·s; in data set [1] (303.15 K), 397.17 ± 28 mPa·s; in data set [1] (308.15 K), 294.59 ± 18 mPa·s; in data set [1] (313.15 K) it was 222.24 ± 12 mPa·s. Moreover, the mass density in data set [1] (293.15 K) came out at 959.61 ± 0.42 kg/m3; in data set [1] (298.15 K), 956.44 ± 0.42 kg/m3; in data set [1] (303.15 K), 953.33 ± 0.42 kg/m3; in data set [1] (308.15 K) it was 950.15 ± 0.42 kg/m3; in data set [1] (313.15 K), 946.98 ± 0.42 kg/m3. In addition, the refractive index in data set [2] was found to be 1.4426 ± 0.0011.

As for `CCCCO` [butan-1-ol], the viscosity is on record as 2.983 ± 0.082 mPa·s in data set [1] (293.15 K); 2.617 ± 0.072 mPa·s in data set [1] (298.15 K); 2.306 ± 0.063 mPa·s in data set [1] (303.15 K); 2.04 ± 0.056 mPa·s in data set [1] (308.15 K); 1.811 ± 0.05 mPa·s in data set [1] (313.15 K). In addition, the mass density in data set [1] (293.15 K) was found to be 809.7 ± 0.38 kg/m3; in data set [1] (298.15 K), 805.9 ± 0.38 kg/m3; in data set [1] (303.15 K), 802.05 ± 0.37 kg/m3; in data set [1] (308.15 K) it was 798.17 ± 0.37 kg/m3; in data set [1] (313.15 K), 794.26 ± 0.37 kg/m3. Besides, the refractive index in data set [2] stood at 1.3973 ± 0.0011.

`CCO` [ethanol]: the viscosity in data set [1] (293.15 K) worked out at 1.241 ± 0.034 mPa·s; in data set [1] (298.15 K), 1.128 ± 0.031 mPa·s; in data set [1] (303.15 K) it was 1.029 ± 0.028 mPa·s; in data set [1] (308.15 K) it was 0.92 ± 0.025 mPa·s; in data set [1] (313.15 K), 0.842 ± 0.023 mPa·s. Moreover, the mass density came out at 789.54 ± 0.37 kg/m3 in data set [1] (293.15 K); 785.25 ± 0.37 kg/m3 in data set [1] (298.15 K); 780.93 ± 0.37 kg/m3 in data set [1] (303.15 K); 776.57 ± 0.37 kg/m3 in data set [1] (308.15 K); 772.18 ± 0.37 kg/m3 in data set [1] (313.15 K). Also, the refractive index in data set [2] is recorded as 1.3594 ± 0.0011.
